The term IC50 denotes the midpoint of a concentration-inhibition curve.

The text below walks through data of patent US11180495B2 (Abbisko Therapeutics Co., Ltd., priority 2017, dated 2021).

Read-outs that look alike come from different tables or passages of the source.

One assay deals with T1, CSF-1R (Homo sapiens, UniProt P07333).
T1 construct: 3.95 nM of CSF-1R, 500 μM of ATP and 0.2 mg/mL of polypeptide
Description: CSF-1R in vitro biochemical kinase study (ADP-Glo assay). The settings on record: 3.95 nM CSF-1R, 500 μM ATP, 30° C. 60 min, read-out: Enzymatic experiment CSF-1R IC50. Here is the method: In the present invention, the inhibitory activity of compounds against the CSF-1R activity was determined by using CSF-1R ADP-Glo assay. The compound-mediated inhibition effect was achieved by inhibiting the production of ADP from consumption of ATP, and the activities of compounds were evaluated by using the ADP-Glo kit (Promega, cat. No. V9101). The specific experimental process was as follows: • 1. The kinase reaction performed in the present invention was carried out in a 384-well plate (Perkinelmer, cat. No. 6007290), and 3.95 nM of CSF-1R, 500 μM of ATP and 0.2 mg/mL of polypeptide (Poly (Glu4, Try1), Sigma, cat. No. P0275) were respectively weighed and added to each well: • 2. following reagents were then added to each well to reach the final reaction system: 40 mM Tris, pH 7.5, 20 mM MgCl2, 0.01% Triton X-100, 0.1 mg/mL BSA, 2.5 mM DTT and 0.1% DMSO; • 3. the reaction was conducted at 30° C. for 60 min; • 4. then an equal volume of stop solution (ADP-Glo) was added to the kinase reaction system; • 5. the mixed solution was incubated at 25° C. for 60 min, and the kinase reaction was then terminated; • 6. a two-fold volume of detection reagent was then added to each well; • 7. the mixed solution was incubated at 25° C. for 30 min; • 8. the compound IC50 value was measured by using a plate reader (Tecan, M1000) and a four-parameter curve was generated in Graphpad Prism. B. KIT/PDGFRA In Vitro Biochemical Kinase Study • 1. Preparation of 1-fold kinase buffer and stop solution • 1.1 1-fold kinase buffer: 50 mM HEPES, pH 7.5, 0.0015% Brij-35. • 1.2 stop solution: 100 mM HEPES, pH 7.5, 0.015% Brij-35, 0.2% Coating Reagent #3 50 mM EDTA • 2. Preparation of compound solution • 2.1 Dilution of compound solution • 1) The final concentration of the compound solution was 40 μM. and the concentration of the prepared stock solution was 50 times of the final concentration, i.e., 2 mM. • 2) 80 μL of 100% DMSO was added to the second well of the 96-well plate, then 20 μL of 10 mM compound solution was added, and thereby 2 mM compound solution was prepared, 60 μL of 100% DMSO was added to other wells, 20 μL of compound was taken from the second well, added to the third well and diluted by 4 times. This serial 4-time dilution was conducted in sequence for the total of 10 concentrations. • 2.2 5-fold compound solution transferred to a reaction plate • 1) 10 μL of solution was taken from each well of the above 96-well plate and added to another 96-well plate, and 90 μL of kinase buffer was added. • 2) 5 μL of solution was taken from the above 96-well plate and added to a 384-well reaction plate. • 2.3 Kinase reaction • 1) KIT/PDGFRA kinase was added to the 1-fold kinase buffer solution to obtain a 2.5-fold kinase solution. • 2) FAM-labeled polypeptide and ATP were added to the 1-fold kinase buffer solution to obtain a 2.5-fold substrate solution. • 3) 10 μL of 2.5-fold kinase solution was added to the 384-well reaction plate, which already contained 5 μL of 5-fold compound in 10% DMSO. And the mixed solution was incubated at room temperature for 10 min. • 4) 10 μL of 2.5-fold substrate solution was added to the 384-well reaction plate. • 5) Kinase reaction and termination: the mixed solution was incubated at 28° C. for a certain period of time, and 25 μL of stop solution was added to stop the reaction. • 2.4 Data reading of Caliper EZ Reader II • 2.5 Calculation of percent inhibition and IC50 • 1) Percent conversion data were copied from the Caliper EZ Reader. • 2) Percent conversion was converted into percent inhibition data, wherein, max referred to percent conversion of the DMSO control, and min referred to percent conversion of the negative control without kinase activity. Percent inhibition=(max−conversion)/(max−min)*100. • 3) The IC50 value was fitted with XLFit excel add-in version 5.4.0.8: Fitting formula: Y=Bottom+(Top−Bottom)/(1+(IC50/X)^HillSlope).
(In general: In ADP-Glo the light output rises with the ADP produced.)

Assay [1] has as its system M-NFS-60 mouse myeloid leukemia lymphocytes. Kind of assay: CSF-1R-related cell proliferation experiment (Cell Titer Glo). The assay is classed as cell-based. The settings on record: 72 h, M-NFS-60 cells, 3 days, CTG. Here is the method: Functional effects of compounds on cell proliferation were evaluated by using Cell Titer Glo (CTG) study in the present invention. M-NFS-60 mouse myeloid leukemia lymphocytes (cat. No. CCBJ078) from National Institutes For Food and Drug Control were cultured in the incubator under conditions of RPMI 1640 (Gibco, cat. No. 11875-119), 10% fetal bovine serum (Gibco, 10099-141), human 10 ng/mL M-CSF macrophage colony-stimulating factor (R&D, cat. No. MVN0915101), 37° C. and 5% CO2. Since ATP is an index for viable cell metabolism, CTG (Promega, #G7573) reagent is a homogeneous detection method for detecting the number of viable cells in the culture by quantifying ATP. Therefore, compound-mediated inhibition for cell proliferation/survival was evaluated by quantifying ATP in cells, and the specific experimental process was as follows: • 1. The cells were plated into a tissue-culture-medium-treated 96-well plate (Costar #3904) with 5,000 cells/well/80 μL fresh culture medium: • 2. 24 hours later, 10 μL culture medium containing testing compound with 10-fold of final concentration was added to each well; • 3. 10 μL of culture medium containing M-CSF with 10-fold of the final concentration was then added to each well: • 4. dosage effect was evaluated by testing the 3-fold serial dilutions of the compound; • 5. after the cells were incubated for 3 days at 37° C. and 5% CO2, the inhibition on cell survival was quantified after 50 μL of CTG was added and the luminescence assay was performed; • 6. the compound concentration leading to half maximal inhibitory (IC50) and the compound concentration leading to absolute half maximal inhibitory (Absolute IC50) were measured by a plate reader (M1000, Tecan) and a four-parameter curve fit in Graphpad Prism 7. D. CSF-1R-Related Cell Proliferation Experiment
For orientation: In ATP-based viability assays light output follows the ATP content of the culture.

[2] abbreviates: absolute half maximal inhibitory concentration, read-out: Cytological experiment CSF-1R Absolute IC50.
The mark [3] stands for this setting: read-out: Cytological experiment CSF1R IC50.

T1 sequence (P07333 20-972): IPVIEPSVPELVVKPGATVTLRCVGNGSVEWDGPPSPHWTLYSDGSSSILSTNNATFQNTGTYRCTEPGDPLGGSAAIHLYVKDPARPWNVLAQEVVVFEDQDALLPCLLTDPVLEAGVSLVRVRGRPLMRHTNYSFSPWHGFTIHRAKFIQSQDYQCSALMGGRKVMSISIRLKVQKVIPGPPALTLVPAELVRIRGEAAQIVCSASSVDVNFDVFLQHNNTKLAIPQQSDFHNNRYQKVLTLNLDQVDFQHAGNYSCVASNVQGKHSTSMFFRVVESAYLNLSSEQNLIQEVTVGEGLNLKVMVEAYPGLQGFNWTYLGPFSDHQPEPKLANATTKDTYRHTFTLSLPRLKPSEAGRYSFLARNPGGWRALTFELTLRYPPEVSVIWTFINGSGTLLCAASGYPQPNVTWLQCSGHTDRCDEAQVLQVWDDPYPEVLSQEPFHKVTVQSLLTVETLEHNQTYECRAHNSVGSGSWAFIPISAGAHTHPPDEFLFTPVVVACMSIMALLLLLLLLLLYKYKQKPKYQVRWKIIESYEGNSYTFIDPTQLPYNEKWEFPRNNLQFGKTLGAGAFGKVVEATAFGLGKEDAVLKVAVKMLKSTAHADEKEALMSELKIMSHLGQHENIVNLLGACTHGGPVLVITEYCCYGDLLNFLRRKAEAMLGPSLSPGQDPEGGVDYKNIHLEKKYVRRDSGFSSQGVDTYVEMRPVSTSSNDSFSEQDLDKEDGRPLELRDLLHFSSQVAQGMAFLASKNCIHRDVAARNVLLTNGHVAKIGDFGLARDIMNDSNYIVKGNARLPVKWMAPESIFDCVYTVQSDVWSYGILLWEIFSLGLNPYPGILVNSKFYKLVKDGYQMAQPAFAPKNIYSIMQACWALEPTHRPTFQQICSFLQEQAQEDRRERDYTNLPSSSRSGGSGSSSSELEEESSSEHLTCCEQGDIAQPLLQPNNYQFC

Regarding `CC(C)Nc1ncc(-c2ccc(Cc3c[nH]c4ncccc34)cn2)c(=O)[nH]1` [Example 2, 5-(5-((1H-pyrrolo[2,3-b]pyridin-3-yl)methyl)pyridin-2-yl)-2-(isopropylamino)pyrimidin-4(3H)-one], the IC50 on CSF-1R came out at 19.3 nM; in assay [1] (setting [2]), 39.9 nM; in assay [1] (setting [3]) it was 215 nM.
Regarding `COCCOc1cnc2[nH]cc(Cc3ccc(-c4cnc(NC(C)C)[nH]c4=O)nc3C)c2c1` [Example 3, 2-(isopropylamino)-5-(5-((5-(2-methoxyethoxy)-1H-pyrrolo[2,3-b]pyridin-3-yl)methyl)-6-methylpyridin-2-yl)pyrimidin-4(3H)-one], the results for the IC50 (on CSF-1R; in assay [1] (setting [2]); in assay [1] (setting [3])) were 39.1 nM, 47.4 nM and 50.8 nM, respectively.
In the case of `Cc1nc(-c2cnc(NC(C)C)[nH]c2=O)ccc1Cc1c[nH]c2ncc(OCCO)cc12` [Example 4, 5-(5-((5-(2-hydroxyethoxy)-1H-pyrrolo[2,3-b]pyridin-3-yl)methyl)-6-methylpyridin-2-yl)-2-(isopropylamino)pyrimidin-4(3H)-one], the IC50 came out at 36.4 nM at CSF-1R, 210 nM in assay [1] (setting [2]) and 235 nM in assay [1] (setting [3]).
On to `Cc1nc(-c2cnc(NC(C)C)[nH]c2=O)ccc1C(=O)c1c[nH]c2ncccc12` [Example 6, 2-(isopropylamino)-5-(6-methyl-5-(1H-pyrrolo[2,3-b]pyridine-3-carbonyl)pyridin-2-yl)pyrimidin-4(3H)-one], for which, on CSF-1R, the IC50 is 88.1 nM.
Still for that read-out and setting: then `COC(c1ccc(-c2cnc(NC(C)C)n(C)c2=O)nc1C)c1c[nH]c2ncc(Cl)cc12` (stereo not shown) [Example 8, 5-(5-((5-chloro-1H-pyrrolo[2,3-b]pyridin-3-yl)(methoxy)methyl)-6-methylpyridin-2-yl)-2-(isopropylamino)-3-methylpyrimidin-4(3H)-one], with 331 nM; and `Cc1nc(-c2cnc(NC(C)C)n(C)c2=O)ccc1C(O)c1c[nH]c2ncc(Cl)cc12` (stereo not shown) [Example 9, 5-(5-((5-chloro-1H-pyrrolo[2,3-b]pyridin-3-yl)(hydroxy)methyl)-6-methylpyridin-2-yl)-2-(isopropylamino)-3-methylpyrimidin-4(3H)-one], with 315 nM; and `Cc1nc(-c2cnc(NC(C)C)n(C)c2=O)ccc1C(=O)c1c[nH]c2ncc(Cl)cc12` [Example 11, 5-(5-(5-chloro-1H-pyrrolo[2,3-b]pyridine-3-carbonyl)-6-methylpyridin-2-yl)-2-(isopropylamino)-3-methylpyrimidin-4(3H)-one], with 73.4 nM.
For `Cc1nc(-c2cnc(NC(C)C)n(C)c2=O)ccc1C(C)c1c[nH]c2ncc(Cl)cc12` (stereo not shown) [Example 12, 5-(5-(1-(5-chloro-1H-pyrrolo[2,3-b]pyridin-3-yl)ethyl)-6-methylpyridin-2-yl)-2-(isopropylamino)-3-methylpyrimidin-4(3H)-one], the IC50 at CSF-1R amounted to 289 nM; in assay [1] (setting [2]) it was 296 nM; in assay [1] (setting [3]), 315 nM.
The matching figures for `Cc1nc(-c2cnc3n(c2=O)CCCN3C)ccc1C(=O)c1c[nH]c2ncccc12` [Example 24, 9-methyl-3-(6-methyl-5-(1H-pyrrolo[2,3-b]pyridine-3-carbonyl)pyridin-2-yl)-6,7,8,9-tetrahydro-4H-pyrimido[1,2-a]pyrimidin-4-one]: 168 nM, 703 nM and 534 nM.
For `Cc1nc(-n2ccc3c(ncn3C(C)C)c2=O)ccc1Cc1c[nH]c2ncc(Cl)cc12` [Example 25, 5-(5-((5-chloro-1H-pyrrolo[2,3-b]pyridin-3-yl)methyl)-6-methylpyridin-2-yl)-1-isopropyl-1,5-dihydro-4H-imidazo[4,5-c]pyridin-4-one], the IC50 on CSF-1R was determined as 48.1 nM; in assay [1] (setting [2]), 622 nM; in assay [1] (setting [3]), 553 nM.
